Test results published in US8487108B2, “Piperidinyl carbamate intermediates for the synthesis of aspartic protease inhibitors” (Vitae Pharmaceuticals, Inc., priority 2005, dated 2013).

biological target: T1, trypsin-activated recombinant human renin (Homo sapiens, UniProt P00797); test: Renin fluorescence assay (internally quenched peptide substrate); type: biochemical; conditions: compounds I*
T1 sequence (P00797 67-406): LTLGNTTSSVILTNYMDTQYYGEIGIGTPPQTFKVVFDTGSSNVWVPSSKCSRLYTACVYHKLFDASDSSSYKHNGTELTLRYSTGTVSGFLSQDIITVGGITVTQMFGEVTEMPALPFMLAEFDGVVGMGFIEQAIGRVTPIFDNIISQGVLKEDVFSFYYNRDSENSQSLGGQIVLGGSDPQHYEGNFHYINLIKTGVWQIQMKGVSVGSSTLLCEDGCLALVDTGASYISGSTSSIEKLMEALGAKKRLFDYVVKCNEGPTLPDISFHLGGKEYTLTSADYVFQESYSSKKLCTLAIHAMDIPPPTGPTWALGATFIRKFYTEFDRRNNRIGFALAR
Procedure: The sequence of this peptide corresponds to the sequence of human angiotensinogen. The following test protocol can be used. All reactions are carried out in a flat bottom white opaque microtiter plate. A 4 μL aliquot of 400 μM renin substrate (DABCYL-γ-[…]) in 192 μL assay buffer (50 mM BES, 150 mM NaCl, 0.25 mg/mL bovine serum albumin, pH7.0) is added to 4 μL of test compound in DMSO at various concentrations ranging from 10 μM to 1 nM final concentrations. Next, 100 μL of trypsin-activated recombinant human renin (final enzyme concentration of 0.2-2 nM) in assay buffer is added, and the solution is mixed by pipetting. The increase in fluorescence at 495 nm (excitation at 340 nm) is measured for 60-360 minutes at rt using a Perkin-Elmer Fusion microplate reader. The slope of a linear portion of the plot of fluorescence-increase as a function of time is then determined, and the rate is used for calculating percent inhibition in relation to uninhibited control. […] (Wang G. T. et al. Anal. Biochem. 1993, 210, 351; Nakamura, N. et al. J. Biochem. (Tokyo) 1991, 109, 741; Murakami, K. et al. Anal Biochem. 1981, 110, 232).

SMILES	IC50
CNC[C@H](CC1CCOCC1)NC(=O)N1CCC[C@@H]([C@@H](OCCNC(=O)OC)c2cc(C)ccc2C)C1 [I*-37a, methyl 2-((R)-(2,5-dimethylphenyl)((R)-1-((S)-1-(methylamino)-3-(tetrahydro-2H-pyran-4-yl)propan-2-ylcarbamoyl)piperidin-3-yl)methoxy)ethylcarbamate]	< 20 nM
CNC[C@H](CC1CCCCC1)NC(=O)N1CCC[C@@H]([C@@H](OCC(C)NC(=O)OC)c2cccc(Cl)c2)C1 (some centres unmarked) [I*-87a]	< 50 nM
CNC[C@H](CC1CCC(O)CC1)NC(=O)N1CCC[C@@H]([C@@H](OCCNC(=O)OC)c2cccc(Cl)c2)C1 (stereo partly drawn) [I*-102a, methyl 2-((R)-(3-chlorophenyl)((R)-1-((S)-1-(4-hydroxycyclohexyl)-3-(methylamino)propan-2-ylcarbamoyl)piperidin-3-yl)methoxy)ethylcarbamate]	< 50 nM
CNC[C@H](CC1CCOCC1)NC(=O)N1CCCC[C@@H]([C@@H](OCCNC(=O)OC)c2cccc(Cl)c2)C1 [I*-108a, methyl 2-((R)-(3-chlorophenyl)((R)-1-((S)-1-(methylamino)-3-(tetrahydro-2H-pyran-4-yl)propan-2-ylcarbamoyl)azepan-3-yl)methoxy)ethylcarbamate]	< 50 nM
CNCC(CC1CCCOC1)NC(=O)N1CCCC(C(O)(CCCNC(=O)OC)c2cccc(F)c2)C1 [I*-54a, methyl (S)-4-(3-fluorophenyl)-4-hydroxy-4-((3R)-1-((S)-1-(methylamino)-3-(tetrahydro-2H-pyran-3-yl)propan-2-ylcarbamoyl)piperidin-3-yl)butylcarbamate]	< 50 nM
CNC[C@H](CC1CCOCC1)NC(=O)N1CCC[C@@H]([C@@H](OCCNC(=O)OC)c2cccs2)C1 [I*-15a, methyl 2-((R)-((R)-1-((S)-1-(methylamino)-3-(tetrahydro-2H-pyran-4-yl)propan-2-ylcarbamoyl)piperidin-3-yl)(thiophen-2-yl)methoxy)ethylcarbamate]	> 50 nM
CNC[C@H](CC1CCOCC1)NC(=O)N1CCC[C@@H]([C@@H](OCCNC(=O)OC)c2cc(C)ccc2F)C1 [I*-49a, methyl 2-((R)-(2-fluoro-5-methylphenyl)((R)-1-((S)-1-(methylamino)-3-(tetrahydro-2H-pyran-4-yl)propan-2-ylcarbamoyl)piperidin-3-yl)methoxy)ethylcarbamate]	> 50 nM
CCC[C@](OCCNC(=O)OC)(c1cccc(Cl)c1)[C@@H]1CCCN(C(=O)N[C@H](CNC)CC2CCCCC2)C1 [I*-150a, methyl 2-((R)-1-(3-chlorophenyl)-1-((R)-1-((S)-1-cyclohexyl-3-(methylamino)propan-2-ylcarbamoyl)piperidin-3-yl)butoxy)ethylcarbamate]	< 50 nM
COC(=O)NCCO[C@@H](c1cccc(Cl)c1)[C@@H]1CCCN(C(=O)NC[C@@H](N)COc2ccccc2)C1 [I*-38a, methyl 2-((R)—((R)-1-((R)-2-amino-3-phenoxypropylcarbamoyl)piperidin-3-yl)(3-chlorophenyl)methoxy)ethylcarbamate]	< 50 nM

The next lines start with the values.

IC50	SMILES
< 1 nM	CNC[C@H](CC1CCC(C)CC1)NC(=O)N1CCC[C@@H]([C@@H](OCCNC(=O)OC)c2cccc(Cl)c2)C1 (stereo partly drawn) [I*-86a, methyl 2-((R)-(3-chlorophenyl)((R)-1-((S)-1-(methylamino)-3-(4-methylcyclohexyl)propan-2-ylcarbamoyl)piperidin-3-yl)methoxy)ethylcarbamate]
< 1 nM	CNC[C@H](C[C@H]1CCCCOC1)NC(=O)N1CCC[C@@H]([C@@H](OCCNC(=O)OC)c2cc(F)cc(Cl)c2)C1 [I*-141a, methyl 2-((R)-(3-chloro-5-fluorophenyl)((R)-1-((S)-1-(methylamino)-3-((R)-oxepan-3-yl)propan-2-ylcarbamoyl)piperidin-3-yl)methoxy)ethylcarbamate]
< 1 nM	CNC[C@H](CC1CCCC1)NC(=O)N1CCC[C@@H]([C@@H](OCCNC(=O)OC)c2cc(F)ccc2C)C1 [I*-24a, methyl 2-((R)—((R)-1-((S)-1-cyclopentyl-3-(methylamino)propan-2-ylcarbamoyl)piperidin-3-yl)(5-fluoro-2-methylphenyl)methoxy)ethylcarbamate]
< 1 nM	CCNC[C@H](CC1CCCCC1)NC(=O)N1CCC[C@@H]([C@@H](OCCNC(=O)OC)c2cccc(Cl)c2)C1 [I*-88a, methyl 2-((R)-(3-chlorophenyl)((R)-1-((S)-1-cyclohexyl-3-(ethylamino)propan-2-ylcarbamoyl)piperidin-3-yl)methoxy)ethylcarbamate]
< 1 nM	CN[C@H](CNC(=O)N1CCC[C@@H]([C@@H](OCCNC(=O)OC)c2cc(Cl)ccc2C)C1)C[C@H]1CCCCOC1 [I*-133a, methyl 2-((R)-(5-chloro-2-methylphenyl)((R)-1-((S)-2-(methylamino)-3-((R)-oxepan-3-yl)propylcarbamoyl)piperidin-3-yl)methoxy)ethylcarbamate]
< 10 nM	CCC(C)(C)C[C@@H](CNC)NC(=O)N1CCC[C@@H]([C@@H](OCCNC(=O)OC)c2cccc(Cl)c2)C1 [I*-34a, methyl 2-((R)-(3-chlorophenyl)((R)-1-((S)-4,4-dimethyl-1-(methylamino)hexan-2-ylcarbamoyl)piperidin-3-yl)methoxy)ethylcarbamate]
< 10 nM	CNC[C@H](CC1CCCCCC1)NC(=O)N1CCC[C@@H]([C@@H](OCCNC(=O)OC)c2cccc(Cl)c2F)C1 [I*-135a, methyl 2-((R)-(3-chloro-2-fluorophenyl)((R)-1-((S)-1-cycloheptyl-3-(methylamino)propan-2-ylcarbamoyl)piperidin-3-yl)methoxy)ethylcarbamate]
< 10 nM	CNC[C@H](CC1CCCOC1)NC(=O)N1CCC[C@@H]([C@@](O)(CCCNC(=O)OC)c2cccc(Cl)c2F)C1 (stereo partly drawn) [I*-139a, methyl (S)-4-(3-chloro-2-fluorophenyl)-4-hydroxy-4-((3R)-1-((S)-1-(methylamino)-3-(tetrahydro-2H-pyran-3-yl)propan-2-ylcarbamoyl)piperidin-3-yl)butylcarbamate]
< 10 nM	CNC[C@H](CC1CCCCC1)NC(=O)N1CCC[C@@H]([C@@H](OCCNC(=O)OC)C2CCCCC2)C1 [I*-10a, methyl 2-((S)-cyclohexyl((R)-1-((S)-1-cyclohexyl-3-(methylamino)propan-2-ylcarbamoyl)piperidin-3-yl)methoxy)ethylcarbamate]
< 1 nM	CN[C@H](C)[C@H](CC1CCCCC1)NC(=O)N1CCC[C@@H]([C@@H](OCCNC(=O)OC)c2cccc(Cl)c2)C1 [I*-82a, methyl 2-((R)-(3-chlorophenyl)((R)-1-((2S,3R)-1-cyclohexyl-3-(methylamino)butan-2-ylcarbamoyl)piperidin-3-yl)methoxy)ethylcarbamate]
< 10 nM	CNC[C@H](CC12CC3CC(CC(C3)C1)C2)NC(=O)N1CCC[C@@H]([C@@H](OCCNC(=O)OC)c2cc(F)ccc2F)C1 [I*-152a, methyl 2-((R)-((R)-1-((S)-1-(1-adamantyl)-3-(methylamino)propan-2-ylcarbamoyl)piperidin-3-yl)(2,5-difluorophenyl)methoxy)ethylcarbamate]
